According to patent publication US20110118337A1, “Method of Using Compositions Comprising MIR-192 and/or MIR-215 for the Treatment of Cancer” (Merck Sharp & Dohme Corp., priority 2008, published 2011):

Columns and labels:
[1] = tested on: miR-192 target transcripts; assay: Down-regulation of miR-192 target transcripts; type: cell-based
[2] = tested on: CDC7, LMNB2, MAD2L1 and CUL5; assay: Western blot analysis; type: cell-based, human; details: HCT116DICER^ex5 cells, 10 nM, data not shown
Method: HCT116DICER^ex5 cells were transfected with 10 nM siRNA against luciferase or 10 nM miR-192 or 10 nM miR-192 mutant, and lysates were prepared at 28 hours or 48 hours post-transfection. For immunoblotting, 30 μg of whole cell lysate extracted in a modified RIPA buffer (150 mM NaCl, 50 mM Tris pH 7.4, 1 mM EDTA, 1% NP-40, 0.1% SDS) was used per sample. CDC7, LMNB2, MAD2L1 and CUL5 were detected by Western blot using anti-CDC7 (sc-56275, Santa Cruz Biotechnology Inc.), anti-LMNB2 (MAB3536, Millipore), anti-MAD2L1 (ab55452, Abcam) and anti-CUL5 (Invitrogen) antibodies, and protein levels were compared to the level of β-actin expression as detected by an anti-β-actin antibody (Abcam).

[3] = tested on: HCT116 DICER^ex5 cells; assay: Gene expression profiling (Agilent 44K microarray) after transfection of miR-192/miR-215 duplex mimetics; type: cell-based, human; details: 10 nM, vs mock-transfected
Method: Synthetic duplex mimetics of miR-192 and miR-215 (sequences shown in TABLE 1) or a control target Luciferase siRNA (Luc), shown in TABLE 1, were transfected (10 nM final concentration) into HCT116 DICER^ex5, a human colorectal cancer cell line with hypomorphic DICER function (Cummins, J. M., et al., PNAS 103:3687-3692 (2006)). The transfections were carried out using Lipofectamine RNAiMax (Invitrogen) per the manufacturer's instructions. At 10 and 24 hours post-transfection, total RNA was extracted and gene expression profiling was carried out with the Agilent 44K microarray in comparison to RNA isolated from mock-transfected HCT116DICER^ex5 cells. Microarray analysis was carried out as described in Linsley, P. S., et al., Mol Cell Biol 27:2240-2252 (2007). Gene expression data analysis was done either with the Rosetta Resolver gene expression analysis software (Version 7.1 Rosetta Biosoftware).

For “miR-192: Synthetic duplex mimetic of miR-192, guide CUGACCUAUGAAUUGACAGCC (SEQ ID NO:1), passenger SEQ ID NO:7 (sense CUGUCAAUUCAUCGGUCUGAU; listed as RNA, chemistry not given here; listed as Homo sapiens)”, the “down-regulation of target transcripts” value [1] was 30-40%, the protein level [2] was “downregulated” and the “BCL2 transcript fold change” value ([3]; 10 hr) was −1.1 fold change. For the same substance, the “BRCA1 transcript fold change” value ([3]; 10 hr) was −1.02 fold change, the “CDC7 transcript fold change” value ([3]; 10 hr) was −1.63 fold change and the “CDC14A transcript fold change” value ([3]; 10 hr) was −1.02 fold change. For the same substance, the “CDC73 transcript fold change” value ([3]; 10 hr) was −1.2 fold change, the “CRK transcript fold change” value ([3]; 10 hr) was −1.42 fold change and the “CTCF transcript fold change” value ([3]; 10 hr) was −1.59 fold change. For the same substance, the “CUL5 transcript fold change” value ([3]; 10 hr) was −1.16 fold change, the “DBF4B transcript fold change” value ([3]; 10 hr) was −1.12 fold change and the “DEK transcript fold change” value ([3]; 10 hr) was −1.21 fold change. The “DLG5 transcript fold change” value ([3]; 10 hr) was −1.99 fold change, the “DTL transcript fold change” value ([3]; 10 hr) was −1.11 fold change and the “EMP1 transcript fold change” value ([3]; 10 hr) was −1.28 fold change. For the same substance, the “ERCC3 transcript fold change” value ([3]; 10 hr) was −1.3 fold change, the “EXTL2 transcript fold change” value ([3]; 10 hr) was −1.2 fold change and the “FGF2 transcript fold change” value ([3]; 10 hr) was −1.48 fold change. The “HOXA10 transcript fold change” value ([3]; 10 hr) was −1.7 fold change, the “HRH1 transcript fold change” value ([3]; 10 hr) was −1.36 fold change and the “KIF14 transcript fold change” value ([3]; 10 hr) was −1.03 fold change. For the same substance, the “KIF23 transcript fold change” value ([3]; 10 hr) was −1.01 fold change, the “LMNB2 transcript fold change” value ([3]; 10 hr) was −1.38 fold change and the “MACF1 transcript fold change” value ([3]; 10 hr) was −1.3 fold change. For the same substance, the “MAD2L transcript fold change” value ([3]; 10 hr) was −1.18 fold change, the “MCM3 transcript fold change” value ([3]; 10 hr) was −1.51 fold change and the “MCM6 transcript fold change” value ([3]; 10 hr) was −1.01 fold change. For the same substance, the “MCM10 transcript fold change” value ([3]; 10 hr) was −1.77 fold change, the “MIS12 transcript fold change” value ([3]; 10 hr) was −1.25 fold change and the “MKI67 transcript fold change” value ([3]; 10 hr) was −1.08 fold change. The “MPHOSPH1 transcript fold change” value ([3]; 10 hr) was −1.32 fold change, the “MTSS1 transcript fold change” value ([3]; 10 hr) was −1.06 fold change and the “NBN transcript fold change” value ([3]; 10 hr) was −1.49 fold change. The “NCAPH transcript fold change” value ([3]; 10 hr) was 1.01 fold change, the “NEK1 transcript fold change” value ([3]; 10 hr) was −1.12 fold change and the “NFIB transcript fold change” value ([3]; 10 hr) was −1.47 fold change. For the same substance, the “NFYA transcript fold change” value ([3]; 10 hr) was −1.22 fold change, the “NIN transcript fold change” value ([3]; 10 hr) was −1.1 fold change and the “PAFAH1B1 transcript fold change” value ([3]; 10 hr) was −1.83 fold change. For the same substance, the “PAPD5 transcript fold change” value ([3]; 10 hr) was −1.32 fold change, the “PFTK1 transcript fold change” value ([3]; 10 hr) was 1.03 fold change and the “PIM1 transcript fold change” value ([3]; 10 hr) was −1.2 fold change. For the same substance, the “PLAU transcript fold change” value ([3]; 10 hr) was −1.74 fold change, the “PLS3 transcript fold change” value ([3]; 10 hr) was −1.44 fold change and the “POLQ transcript fold change” value ([3]; 10 hr) was −1.03 fold change. For the same substance, the “POLS transcript fold change” value ([3]; 10 hr) was −1.23 fold change, the “PPP1CA transcript fold change” value ([3]; 10 hr) was −1.83 fold change and the “PRPF38A transcript fold change” value ([3]; 10 hr) was −1.11 fold change. The “RACGAP1 transcript fold change” value ([3]; 10 hr) was −1.34 fold change, the “RAD1 transcript fold change” value ([3]; 10 hr) was −1.2 fold change and the “RAD51 transcript fold change” value ([3]; 10 hr) was 1.08 fold change. The “RAP1GAP transcript fold change” value ([3]; 10 hr) was −1.11 fold change, the “RB1 transcript fold change” value ([3]; 10 hr) was −1.21 fold change and the “SEPT10 transcript fold change” value ([3]; 10 hr) was −1.59 fold change. For the same substance, the “SERTAD2 transcript fold change” value ([3]; 10 hr) was −1.12 fold change, the “SH3BP4 transcript fold change” value ([3]; 10 hr) was −1.52 fold change and the “SMARCB1 transcript fold change” value ([3]; 10 hr) was −1.16 fold change. The “TDG transcript fold change” value ([3]; 10 hr) was −1.47 fold change, the “TDP1 transcript fold change” value ([3]; 10 hr) was −1.44 fold change and the “TOP1 transcript fold change” value ([3]; 10 hr) was −1.52 fold change. The “TUBGCP3 transcript fold change” value ([3]; 10 hr) was −1.26 fold change, the “USP1 transcript fold change” value ([3]; 10 hr) was −1.13 fold change and the “UVRAG transcript fold change” value ([3]; 10 hr) was −1.2 fold change. The “BCL2 transcript fold change” value ([3]; 24 hr) was −1.46 fold change, the “BRCA1 transcript fold change” value ([3]; 24 hr) was −1.35 fold change and the “CDC7 transcript fold change” value ([3]; 24 hr) was −2.05 fold change. The “CDC14A transcript fold change” value ([3]; 24 hr) was −1.16 fold change, the “CDC73 transcript fold change” value ([3]; 24 hr) was −1.17 fold change and the “CRK transcript fold change” value ([3]; 24 hr) was −1.44 fold change. For the same substance, the “CTCF transcript fold change” value ([3]; 24 hr) was −1.78 fold change, the “CUL5 transcript fold change” value ([3]; 24 hr) was −1.35 fold change and the “DBF4B transcript fold change” value ([3]; 24 hr) was −1.33 fold change. For the same substance, the “DEK transcript fold change” value ([3]; 24 hr) was −1.47 fold change, the “DLG5 transcript fold change” value ([3]; 24 hr) was −2.22 fold change and the “DTL transcript fold change” value ([3]; 24 hr) was −1.38 fold change. For the same substance, the “EMP1 transcript fold change” value ([3]; 24 hr) was −1.66 fold change, the “ERCC3 transcript fold change” value ([3]; 24 hr) was −1.6 fold change and the “EXTL2 transcript fold change” value ([3]; 24 hr) was −1.5 fold change. For the same substance, the “FGF2 transcript fold change” value ([3]; 24 hr) was −1.83 fold change, the “HOXA10 transcript fold change” value ([3]; 24 hr) was −2.3 fold change and the “HRH1 transcript fold change” value ([3]; 24 hr) was −1.77 fold change. The “KIF14 transcript fold change” value ([3]; 24 hr) was −1.42 fold change, the “KIF23 transcript fold change” value ([3]; 24 hr) was −1.34 fold change and the “LMNB2 transcript fold change” value ([3]; 24 hr) was −1.82 fold change. The “MACF1 transcript fold change” value ([3]; 24 hr) was −1.64 fold change, the “MAD2L transcript fold change” value ([3]; 24 hr) was −1.53 fold change and the “MCM3 transcript fold change” value ([3]; 24 hr) was −1.91 fold change. For the same substance, the “MCM6 transcript fold change” value ([3]; 24 hr) was −1.33 fold change, the “MCM10 transcript fold change” value ([3]; 24 hr) was −2.37 fold change and the “MIS12 transcript fold change” value ([3]; 24 hr) was −1.73 fold change. For the same substance, the “MKI67 transcript fold change” value ([3]; 24 hr) was −1.4 fold change, the “MPHOSPH1 transcript fold change” value ([3]; 24 hr) was −1.87 fold change and the “MTSS1 transcript fold change” value ([3]; 24 hr) was −1.47 fold change. The “NBN transcript fold change” value ([3]; 24 hr) was −1.27 fold change, the “NCAPH transcript fold change” value ([3]; 24 hr) was −1.32 fold change and the “NEK1 transcript fold change” value ([3]; 24 hr) was −1.47 fold change. The “NFIB transcript fold change” value ([3]; 24 hr) was 1.82 fold change, the “NFYA transcript fold change” value ([3]; 24 hr) was −1.35 fold change and the “NIN transcript fold change” value ([3]; 24 hr) was 1.38 fold change. The “PAFAH1B1 transcript fold change” value ([3]; 24 hr) was −2.22 fold change, the “PAPD5 transcript fold change” value ([3]; 24 hr) was −1.44 fold change and the “PFTK1 transcript fold change” value ([3]; 24 hr) was −1.33 fold change. For the same substance, the “PIM1 transcript fold change” value ([3]; 24 hr) was −1.73 fold change, the “PLAU transcript fold change” value ([3]; 24 hr) was −1.95 fold change and the “PLS3 transcript fold change” value ([3]; 24 hr) was −1.57 fold change. The “POLQ transcript fold change” value ([3]; 24 hr) was −1.18 fold change, the “POLS transcript fold change” value ([3]; 24 hr) was −1.39 fold change and the “PPP1CA transcript fold change” value ([3]; 24 hr) was −2.18 fold change. The “PRPF38A transcript fold change” value ([3]; 24 hr) was −1.17 fold change, the “RACGAP1 transcript fold change” value ([3]; 24 hr) was −1.9 fold change and the “RAD1 transcript fold change” value ([3]; 24 hr) was −1.37 fold change. For the same substance, the “RAD21 transcript fold change” value ([3]; 24 hr) was −1.36 fold change, the “RAD51 transcript fold change” value ([3]; 24 hr) was −1.23 fold change and the “RAP1GAP transcript fold change” value ([3]; 24 hr) was −1.43 fold change. For the same substance, the “RB1 transcript fold change” value ([3]; 24 hr) was −1.45 fold change, the “SEPT10 transcript fold change” value ([3]; 24 hr) was −1.98 fold change and the “SERTAD2 transcript fold change” value ([3]; 24 hr) was −1.31 fold change. The “SH3BP4 transcript fold change” value ([3]; 24 hr) was −1.9 fold change, the “SMARCB1 transcript fold change” value ([3]; 24 hr) was −1.3 fold change and the “TDG transcript fold change” value ([3]; 24 hr) was −1.52 fold change. For the same substance, the “TDP1 transcript fold change” value ([3]; 24 hr) was −1.66 fold change, the “TOP1 transcript fold change” value ([3]; 24 hr) was −1.66 fold change and the “TUBGCP3 transcript fold change” value ([3]; 24 hr) was −1.52 fold change. For the same substance, the “USP1 transcript fold change” value ([3]; 24 hr) was −1.35 fold change and the “UVRAG transcript fold change” value ([3]; 24 hr) was −1.38 fold change.
